Results taken from US9486534B2, “Niacin conjugated fatty acid mixtures and their uses” (Catabasis Pharmaceuticals, Inc., priority 2009, dated 2016).

Assays:
[1] = tested on: ApoA1 (apolipoprotein A1); test: Effect on SREBP-1c target genes in HepG2 cells, real time PCR: ApoA1; type: cell-based; settings: HepG2 cells stimulated with oleate, 50 μM, 6 hours, normalized to 18S; FIG. 2
Protocol: (§1) HepG2 cells (ATCC) were seeded at 20,000 cells per well in 96 well plates. After adhering overnight, growth media (1.0% FBS in DMEM) was removed and cells were serum starved for 24 hours in DMEM containing 1% fatty acid free bovine serum albumin (BSA, Sigma). […] Cells were incubated for 6 hours and then washed with PBS. RNA was reverse-transcribed using the cells to cDNA reagents according to standard protocols (outlined in Applied Biosystem StepOne Real-time PCR protocols). Real time PCR of transcripts was performed with Taqman assays for the three specific genes FASN (fatty acid synthase), SCD (steroyl CoA desaturase) and ApoA1 (apolipoprotein A1). In all three cases, 18S-VIC® was used as a normalization control.

[2] = tested on: ApoB secretion in HepG2 cells; settings: 3 concentrations (50, 100 and 200 μM), compared to niacin at 5 mM, FIG. 1
Protocol: HepG2 cells (ATCC) are seeded at 10,000 cells per well in 96 well plates. After adhering overnight, growth media (10% FBS in DMEM) is removed and cells are serum starved for 24 hours in DMEM containing 0.1% fatty acid free bovine serum albumin (BSA, Sigma). Cells are then treated with a compound. Niacin at 5 mM is used as a positive control. All treatments are performed in triplicate. Simultaneous with compound treatment, ApoB secretion is stimulated with addition of 0.1 oleate complexed to fatty acid free BSA in a 5:1 molar ratio. Incubation with a compound and oleate is conducted for 24 hours. Media supernatants are removed and ApoB concentrations are measured using ELISA kits (Mabtech AB). Percent inhibition of ApoB secretion is determined by normalizing data to vehicle treated wells. For a given compound, an IC50 (concentration at which 50% of ApoB secretion is inhibited) can also be determined by using a 4 parameter-fit inhibition curve model (Graph Pad Prism®). In each experiment, cell viability is determined using the ATPlite 1-Step kit (Perkin Elmer), such that compound effects due to cytotoxicity can be monitored.
The level of ApoB secretion was compared to that of niacin, evaluated at 5 mM concentration.

[3] = tested on: FASN (fatty acid synthase); test: Effect on SREBP-1c target genes in HepG2 cells, real time PCR: FASN; type: cell-based; settings: HepG2 cells stimulated with oleate, 50 μM, 6 hours, normalized to 18S; FIG. 2
Protocol: as §1

[4] = tested on: SCD (steroyl CoA desaturase); test: Effect on SREBP-1c target genes in HepG2 cells, real time PCR: SCD; type: cell-based; settings: HepG2 cells stimulated with oleate, 50 μM, 6 hours, normalized to 18S; FIG. 2
Protocol: as §1

CC/C=C\C/C=C\C/C=C\C/C=C\C/C=C\C/C=C\CCC(=O)NCCNC(=O)c1cccnc1 [I-7, N-(2-(4Z,7Z,10Z,13Z,16Z,19Z)-docosa-4,7,10,13,16,19-hexaenamidoethyl)nicotinamide]
ApoA1 gene expression [1]: increase | inhibition of ApoB secretion [2]: significant inhibition | FASN gene expression [3]: statistically significant inhibition | SCD gene expression [4]: statistically significant inhibition

CC/C=C\C/C=C\C/C=C\C/C=C\C/C=C\CCCC(=O)NCCNC(=O)c1cccnc1 [I-8, N-(2-(5Z,8Z,11Z,14Z,17Z)-eicosa-5,8,11,14,17-pentaenamidoethyl)nicotinamide]
ApoA1 gene expression [1]: increase | FASN gene expression [3]: statistically significant inhibition | SCD gene expression [4]: statistically significant inhibition
